The results in this text go back to patent US8518947B2, “(Heterocycle/tetrahydropyridine)-(piperazinyl)-1-alcanone and (heterocycle/dihydropyrrolidine)-(piperazinyl)-1-alcanone derivatives, and use thereof as p75 inhibitors” (Sanofi, priority 2009, dated 2013).

Where a name gives a salt, the structure may show the parent alone.

What is called melting point is the temperature of the solid-liquid transition.

Compound `Cc1cc2cc(C3=CCN(C(=O)CN4CC5CCC(C4)N5c4ncc(F)cn4)CC3)ccc2s1` yielded a melting point of 177 to 179 °C. `O=C(CN1CC2CCC(C1)N2c1ncc(F)cn1)N1CC=C(c2cccc3ccoc23)CC1` had a melting point of 157 to 158 °C. For `C[C@@H]1CN(c2ccc3ccccc3n2)C[C@H](C)N1CC(=O)N1CC=C(c2c[nH]c3ccccc23)CC1` [Compound 110, 2-((2S,6R)-2,6-dimethyl-4-quinolin-2-yl-piperazin-1-yl)-1-[4-(1H-indol-3-yl)-3,6-dihydro-2H-pyridin-1-yl]ethanone] the value was 198 to 200 °C. As for `C[C@@H]1CN(c2ccc(C(F)(F)F)nc2)C[C@H](C)N1CC(=O)N1CC=C(c2cccc3ccoc23)CC1` [Compound 37, 1-(4-benzofuran-7-yl-3,6-dihydro-2H-pyridin-1-yl)-2-[(2S,6R)-2,6-dimethyl-4-(6-trifluoromethylpyridin-3-yl)piperazin-1-yl]ethanone], the figure is 119 to 120 °C; as for `COC(=O)c1ccc(N2C[C@@H](C)N(CC(=O)N3CC=C(c4ccc5sccc5c4)CC3)[C@@H](C)C2)nc1` [Compound 52, Methyl 6-{(3S,5R)-4-[2-(4-benzo[b]thiophen-5-yl-3,6-dihydro-2H-pyridin-1-yl)-2-oxoethyl]-3,5-dimethylpiperazin-1-yl}nicotinate], 130 to 132 °C. For `O=C(O)c1ccc(N2C3CCC2CN(CC(=O)N2CC=C(c4cccc5ccsc45)CC2)C3)nc1` [85] the value was 191 to 192 °C; for `Cc1cc2cc(C3=CCN(C(=O)CN4CCN(c5ccnc6cc(Cl)ccc56)CC4)CC3)ccc2s1` [Compound 117, 2-[4-(7-chloroquinolin-4-yl)piperazin-1-yl]-1-[4-(2-methylbenzo[b]thiophen-5-yl)-3,6-dihydro-2H-pyridin-1-yl]ethanone], 90 to 93 °C.

`O=C(CN1CC2CCC(C1)N2c1ncc(F)cn1)N1CC=C(c2csc3ccccc23)CC1` yielded a melting point of 172 to 174 °C. As for `N#Cc1ccc(N2C3CCC2CN(CC(=O)N2CC=C(c4cccc5ccoc45)CC2)C3)nc1`, the figure is 184 to 185 °C; as for `Cc1cc2cc(C3=CCN(C(=O)CN4CCN(c5ccc6ccccc6n5)CC4)CC3)ccc2s1` [Compound 114, 1-[4-(2-methylbenzo[b]thiophen-5-yl)-3,6-dihydro-2H-pyridin-1-yl]-2-(4-quinolin-2-ylpiperazin-1-yl)ethanone], 189 to 190 °C. As for `COC(=O)c1ccc(N2C3CCC2CN(CC(=O)N2CC=C(c4nccc5sccc45)CC2)C3)nc1`, the figure is 170 to 171 °C; as for `C[C@@H]1CN(c2ncc(F)cn2)C[C@H](C)N1CC(=O)N1CC=C(c2ccc3c(c2)OCCO3)CC1` (as salt: oxalate) [Compound 44, 1-[4-(2,3-dihydrobenzo[1,4]dioxin-6-yl)-3,6-dihydro-2H-pyridin-1-yl]-2-[(2S,6R)-4-(5-fluoropyrimidin-2-yl)-2,6-dimethylpiperazin-1-yl]ethanone], 90 to 91 °C; as for `C[C@@H]1CN(c2ccc(C(F)(F)F)cn2)C[C@H](C)N1CC(=O)N1CC=C(c2c[nH]c3ccccc23)CC1` [Compound 97, 2-[(2S,6R)-2,6-dimethyl-4-(5-trifluoromethylpyridin-2-yl)piperazin-1-yl]-1-[4-(1H-indol-3-yl)-3,6-dihydro-2H-pyridin-1-yl]ethanone], 198 to 200 °C. For `O=C(CN1CCN(c2ccc(C(F)(F)F)cn2)CC1)N1CC=C(c2ccc3c(c2)OCCO3)CC1` [Compound 21, 1-[4-(2,3-dihydrobenzo[1,4]dioxin-6-yl)-3,6-dihydro-2H-pyridin-1-yl]-2-[4-(5-trifluoromethylpyridin-2-yl)piperazin-1-yl]ethanone] the value was 142 to 143 °C. `Cc1cc2cc(C3=CCN(C(=O)CN4[C@H](C)CN(c5cncnc5)C[C@@H]4C)CC3)ccc2s1` [Compound 40, 2-((2S,6R)-2,6-dimethyl-4-pyrimidin-5-ylpiperazin-1-yl)-1-[4-(2-methylbenzo[b]thiophen-5-yl)-3,6-dihydro-2H-pyridin-1-yl]ethanone]: the melting point was 191 to 192 °C. For `O=C(CN1CCN(c2ccnc3cc(Cl)ccc23)CC1)N1CC=C(c2cccc3ccsc23)CC1` [Compound 106, 1-(4-benzo[b]thiophen-7-yl-3,6-dihydro-2H-pyridin-1-yl)-2-[4-(7-chloroquinolin-4-yl)piperazin-1-yl]ethanone] the value was 90 to 91 °C.

On to `O=C(CN1CC2CCC(C1)N2c1ncc(F)cn1)N1CC=C(c2c[nH]c3cc(F)ccc23)CC1` (as salt: oxalate), for which the melting point is 95 to 96 °C.

`C[C@@H]1CN(c2ccc(C(F)(F)F)nc2)C[C@H](C)N1CC(=O)N1CC=C(c2cccc3ccsc23)CC1` (as salt: HCl) [Compound 54, 1-(4-benzo[b]thiophen-7-yl-3,6-dihydro-2H-pyridin-1-yl)-2-[(2S,6R)-2,6-dimethyl-4-(6-trifluoromethylpyridin-3-yl)piperazin-1-yl)ethanone] returned a melting point of 225 to 226 °C. As for `C[C@@H]1CN(c2ccc(C(F)(F)F)cn2)C[C@H](C)N1CC(=O)N1CCC=C(c2cccc3ccoc23)C1` [Compound 63, 1-(5-benzofuran-7-yl-3,6-dihydro-2H-pyridin-1-yl)-2-[(2S,6R)-2,6-dimethyl-4-(5-trifluoromethylpyridin-2-yl)piperazin-1-yl]ethanone], the figure is 129 to 130 °C. For `C[C@@H]1CN(c2ncc(F)cn2)C[C@H](C)N1CC(=O)N1CC=C(c2cccc3ccoc23)CC1` (as salt: HCl) [Compound 36, 1-(4-benzofuran-7-yl-3,6-dihydro-2H-pyridin-1-yl)-2-[(2S,6R)-4-(5-fluoropyrimidin-2-yl)-2,6-dimethylpiperazin-1-yl]ethanone], the melting point is 174 to 175 °C. For `COC(=O)c1ccc(N2C3CCC2CN(CC(=O)N2CC=C(c4cccc5ccsc45)C2)C3)nc1` the value was 172 to 173 °C; for `Cc1cc2cc(C3=CCN(C(=O)CN4CC5CCC(C4)N5c4ccc(C#N)cn4)CC3)ccc2s1`, 171 to 172 °C; for `O=C(CN1CC2CCC(C1)N2c1ncc(F)cn1)N1CC=C(c2nccc3sccc23)CC1`, 167 to 168 °C. For `COC(=O)c1ccc(N2C[C@@H](C)N(CC(=O)N3CC=C(c4cccc5ccsc45)CC3)[C@@H](C)C2)nc1` (as salt: HCl) [Compound 58, Methyl 6-{(3S,5R)-4-[2-(4-benzo[b]thiophen-7-yl-3,6-dihydro-2H-pyridin-1-yl)-2-oxoethyl]-3,5-dimethylpiperazin-1-yl}nicotinate] the value was 208 to 210 °C; for `COC(=O)c1ccc(N2C3CCC2CN(CC(=O)N2CC=C(c4ccc5c(c4)OCCO5)CC2)C3)nc1`, 172 to 174 °C. As for `O=C(CN1CC2CCC(C1)N2c1ccc(-c2noc(=O)[nH]2)cn1)N1CC=C(c2cccc3ccoc23)CC1`, the melting point was 230 to 232 °C.

`O=C(CN1CCN(c2ccc(C(F)(F)F)cn2)C(=O)C1)N1CC=C(c2nccc3sccc23)CC1` [Compound 118, 4-[2-oxo-2-(4-thieno[3,2-c]pyridin-4-yl-3,6-dihydro-2H-pyridin-1-yl)ethyl]-1-(5-trifluoromethylpyridin-2-yl)piperazin-2-one] registered a melting point of 145 to 148 °C.

Take `COC(=O)c1ccc(N2C3CCC2CN(CC(=O)N2CC=C(c4ccc5sc(C)cc5c4)CC2)C3)nc1`: the melting point lay in the range of 179 to 180 °C. For `O=C(CN1CCN(c2cccc(Cl)n2)CC1)N1CC=C(c2cccc3ccsc23)CC1` [Compound 107, 1-(4-benzo[b]thiophen-7-yl-3,6-dihydro-2H-pyridin-1-yl)-2-[4-(6-chloropyridin-2-yl)piperazin-1-yl]ethanone] the value was 92 to 93 °C; for `O=C(CN1CCN(c2ccc(C(F)(F)F)cn2)C(=O)C1)N1CC=C(c2ccc3occc3c2)CC1` [Compound 60, 4-[2-(4-benzofuran-5-yl-3,6-dihydro-2H-pyridin-1-yl)-2-oxoethyl]-1-(5-trifluoromethylpyridin-2-yl)piperazin-2-one], 154 to 155 °C; for `Cc1cc2cc(C3=CCN(C(=O)CN4CCN(c5cccc(C(F)(F)F)n5)CC4)CC3)ccc2s1` [Compound 116, 1-[4-(2-methylbenzo[b]thiophen-5-yl)-3,6-dihydro-2H-pyridin-1-yl]-2-[4-(6-trifluoromethylpyridin-2-yl)piperazin-1-yl]ethanone], 121 to 123 °C. For `O=C(CN1CCN(c2ccc(C(F)(F)F)cn2)C(=O)C1)N1CC=C(c2cccc3ccoc23)C1` [Compound 83, 4-[2-(3-benzofuran-7-yl-2,5-dihydropyrrol-1-yl)-2-oxoethyl]-1-(5-trifluoromethylpyridin-2-yl)piperazin-2-one] the value was 184 to 186 °C. Consider `C[C@@H]1CN(c2ccc(-c3nccs3)cn2)C[C@H](C)N1CC(=O)N1CC=C(c2cccc3ccoc23)CC1` (as salt: oxalate) [Compound 119, 1-(4-benzofuran-7-yl-3,6-dihydro-2H-pyridin-1-yl)-2-[(2S,6R)-2,6-dimethyl-4-(5-thiazol-2-ylpyridin-2-yl)piperazin-1-yl]ethanone], for which the melting point fell in the range of 140 to 145 °C.

With `Cc1cc2cc(C3=CCN(C(=O)CN4CC5CCC(C4)N5c4ccc(C(=O)O)cn4)CC3)ccc2s1`, the melting point fell in the range of 160 to 161 °C. On to `C[C@@H]1CN(c2ccc(C(F)(F)F)nc2)C[C@H](C)N1CC(=O)N1CC=C(c2ccc3sccc3c2)CC1` [Compound 47, 1-(4-benzo[b]thiophen-5-yl-3,6-dihydro-2H-pyridin-1-yl)-2-[(2S,6R)-2,6-dimethyl-4-(6-trifluoromethylpyridin-3-yl)piperazin-1-yl)ethanone], for which the melting point was 136 to 137 °C. As for `O=C(O)c1ccc(N2C3CCC2CN(CC(=O)N2CC=C(c4cccc5ccsc45)CC2)C3)nc1` [71], the figure is 121 to 122 °C; as for `C[C@@H]1CN(c2ncc(F)cn2)C[C@H](C)N1CC(=O)N1CC=C(c2c[nH]c3ccccc23)CC1` [Compound 100, 2-[(2S,6R)-4-(5-fluoropyrimidin-2-yl)-2,6-dimethylpiperazin-1-yl]-1-[4-(1H-indol-3-yl)-3,6-dihydro-2H-pyridin-1-yl]ethanone], 235 to 237 °C.
